Laboratory results published in publication PMC3157426 (PLoS ONE, 2011).
Entries after “also recorded” stand apart in the source; their conditions may differ. Read-outs that look alike come from different tables or passages of the source.

Columns and labels:
[1] = target: B/Perth/211/01 D197E mutant NA (Influenza B virus, UniProt Q3S340, D197E); assay type: biochemical, influenza B virus B/Perth/211/01
[2] = target: A/Mississippi/03/01 H1N1 H274Y mutant NA (Influenza A virus, UniProt Q289M4, H275Y); assay type: biochemical, influenza virus A/Mississippi/03/01 H1N1
[3] = target: A/Fukui/45/04 H3N2 E119V mutant NA (Influenza A virus, UniProt C0IZY2, E119V); assay type: biochemical, influenza virus A/Fukui/45/04 H3N2
[4] = read-out: IC50 at 10 min, 30' Pre
[5] = read-out: IC50 at 10 min, No pre
[6] = read-out: final IC50 after 60 min, 30' pre
[7] = read-out: final IC50 after 60 min, No pre

Row | Compound | binding phenotype (slow or fast binding) [1] | binding phenotype (slow or fast binding) [2] | binding phenotype (slow or fast binding) [3] | IC50 [2, 4] | IC50 [2, 5] | IC50 [2, 6] | IC50 [2, 7] | IC50 [3, 4] | IC50 [3, 5] | IC50 [3, 6] | IC50 [3, 7] | also measured
1 | CC(=O)N[C@H]1[C@H]([C@H](O)[C@H](O)CO)OC(C(=O)O)=C[C@@H]1O [DANA, 2-deoxy,2,3-dehydro N-acetyl neuraminic acid] | fast binding | fast binding | fast binding |  |  |  |  |  |  |  |  | susceptibility compared to the wild type virus [1]: Some reduced susceptibility
2 | CCC(CC)[C@H](NC(C)=O)[C@@H]1[C@H](O)[C@@H](C(=O)O)C[C@H]1N=C(N)N [Peramivir, peramivir] | loss of slow binding | loss of slow binding |  | 100 nM | 130 nM | 153 nM | 196 nM | 1.4 nM | 154 nM | 2.1 nM | 21.4 nM | 10'/60 (ratio of IC50s), No pre [1]: 2.5; No pre/pre (ratio of 60 min IC50s) [1]: 1.8; IC50 [1, 4]: 3.9 nM; IC50 [1, 5]: 186 nM; IC50 [1, 6]: 41.5 nM; IC50 [1, 7]: 75.2 nM; 10'/60 (ratio of IC50s), No pre [2]: 0.7; 60'/10 (ratio of IC50s), 30' Pre [2]: 1.5; No pre/pre (ratio of 60 min IC50s) [2]: 1.3; 10'/60 (ratio of IC50s), No pre [3]: 7.2; 60'/10 (ratio of IC50s), 30' Pre [3]: 1.5; No pre/pre (ratio of 60 min IC50s) [3]: 10.2
3 | CC(=O)N[C@H]1[C@H]([C@H](O)[C@H](O)CO)OC(C(=O)O)=C[C@@H]1N=C(N)N [Zanamivir, zanamivir] |  | no impact on the binding kinetics | slow binding phenotype |  |  |  |  |  |  |  |  | 
4 | oseltamivir carboxylate |  | loss of slow binding | fast binding; also recorded: loss of slow binding | 1590 nM | 1900 nM | 2440 nM | 2350 nM | 122 nM | 178 nM | 260 nM | 208 nM | 
